Earlier results, collected in paper PMC6318274, “Lattice engineering enables definition of molecular features allowing for potent small-molecule inhibition of HIV-1 entry” (Nature Communications, 2019).
Where two headings read alike, the source gives them in different places.

Test system: HIV-1 Env-pseudoviruses (208-strain panel)
Details: cited from earlier work

SMILES: COc1cnc(-n2cnc(C)n2)c2[nH]cc(C(=O)C(=O)N3CCN(C(=O)c4ccccc4)CC3)c12 [BMS-626529]
- IC50 (45_01dG5, clade B, read-out: IC50): 0.4 nM
- IC50 (0077.v1.c16, clade C, read-out: IC50): 2 nM
- IC50 (89.6.DG, clade B, read-out: IC50): 2 nM
- IC50 (96ZM651.02, clade C, read-out: IC50): 4 nM
- IC50 (208-strain panel, read-out: Geometric mean IC50): 15.9 nM
- IC50 (208-strain panel, read-out: Median IC50): 9 nM
- IC50 (235-47, clade AG, read-out: IC50): 1 nM
- IC50 (242-14, clade AG, read-out: IC50): 23 nM
- IC50 (246-F3.C10.2, clade AC, read-out: IC50): 200 nM
- IC50 (247-23, clade D, read-out: IC50): 11 nM
- IC50 (0260.v5.c36, clade A, read-out: IC50): 29 nM
- IC50 (263-8, clade AG, read-out: IC50): 2 nM
- IC50 (269-12, clade AG, read-out: IC50): 15100 nM
- IC50 (271-11, clade AG, read-out: IC50): > 20000 nM
- IC50 (286.36, clade C, read-out: IC50): 1 nM
- IC50 (288.38, clade C, read-out: IC50): 3 nM
- IC50 (0330.v4.c3, clade A, read-out: IC50): 98 nM
- IC50 (398-F1.F6.20, clade A, read-out: IC50): 372 nM
- IC50 (426c, clade C, read-out: IC50): 30 nM
- IC50 (0439.v5.c1, clade A, read-out: IC50): 9 nM
- IC50 (0815.v3.c3, clade ACD, read-out: IC50): 2 nM
- IC50 (00836-2.5, clade C, read-out: IC50): > 20000 nM
- IC50 (0921.v2.c14, clade C, read-out: IC50): 0.9 nM
- IC50 (928-28, clade AG, read-out: IC50): 2080 nM
- IC50 (001428-2.42, clade C, read-out: IC50): 49 nM
- IC50 (3016.v5.c45, clade D, read-out: IC50): 0.5 nM
- IC50 (3168.v4.c10, clade C, read-out: IC50): 1 nM
- IC50 (3301.v1.c24, clade AC, read-out: IC50): 15 nM
- IC50 (3326.v4.c3, clade CD, read-out: IC50): 0.3 nM
- IC50 (3337.v2.c6, clade CD, read-out: IC50): 1 nM
- IC50 (3365.v2.c20, clade A, read-out: IC50): 1920 nM
- IC50 (3415.v1.c1, clade A, read-out: IC50): 5 nM
- IC50 (3468.v1.c12, clade AD, read-out: IC50): 7 nM
- IC50 (3589.v1.c4, clade AC, read-out: IC50): 1 nM
- IC50 (3637.v5.c3, clade C, read-out: IC50): 1 nM
- IC50 (3718.v3.c11, clade A, read-out: IC50): 10 nM
- IC50 (3817.v2.c59, clade CD, read-out: IC50): 48 nM
- IC50 (3873.v1.c24, clade C, read-out: IC50): 0.6 nM
- IC50 (3988.25, clade B, read-out: IC50): 1 nM
- IC50 (5768.04, clade B, read-out: IC50): 3 nM
- IC50 (6095.v1.c10, clade ACD, read-out: IC50): 1 nM
- IC50 (6101.10, clade B, read-out: IC50): 1 nM
- IC50 (6322.v4.c1, clade C, read-out: IC50): 91 nM
- IC50 (6405.v4.c34, clade D, read-out: IC50): 2470 nM
- IC50 (6471.v1.c16, clade C, read-out: IC50): 2 nM
- IC50 (6535.3, clade B, read-out: IC50): 0.3 nM
- IC50 (6540.v4.c1, clade AC, read-out: IC50): 41 nM
- IC50 (6545.v4.c1, clade AC, read-out: IC50): 32 nM
- IC50 (6631.v3.c10, clade C, read-out: IC50): 3 nM
- IC50 (6644.v2.c33, clade C, read-out: IC50): 71 nM
- IC50 (6785.v5.c14, clade C, read-out: IC50): 292 nM
- IC50 (6838.v1.c35, clade C, read-out: IC50): 19 nM
- IC50 (7165.18, clade B, read-out: IC50): 29 nM
- IC50 (0013095-2.11, clade C, read-out: IC50): 5 nM
- IC50 (16055-2.3, clade C, read-out: IC50): 3 nM
- IC50 (16845-2.22, clade C, read-out: IC50): 1 nM
- IC50 (16936-2.21, clade C, read-out: IC50): 6 nM
- IC50 (25710-2.43, clade C, read-out: IC50): 2 nM
- IC50 (25711-2.4, clade C, read-out: IC50): 13 nM
- IC50 (25925-2.22, clade C, read-out: IC50): 2 nM
- IC50 (26191-2.48, clade C, read-out: IC50): 2 nM
- IC50 (57128.vrc15, clade D, read-out: IC50): 6 nM
- IC50 (191821.E6.1, clade D, read-out: IC50): 0.8 nM
- IC50 (231965.c01, clade D, read-out: IC50): 1 nM
- IC50 (620345.c1, clade AE, read-out: IC50): 4130 nM
- IC50 (A07412M1.vrc12, clade D, read-out: IC50): 8 nM
- IC50 (AC10.29, clade B, read-out: IC50): 3 nM
- IC50 (ADA.DG, clade B, read-out: IC50): 3 nM
- IC50 (BB201.B42, clade A, read-out: IC50): 242 nM
- IC50 (BB539.2B13, clade A, read-out: IC50): 7 nM
- IC50 (BG1168.01, clade B, read-out: IC50): 13 nM
- IC50 (BI369.9A, clade A, read-out: IC50): 6 nM
- IC50 (BJOX002000.03.2, clade BC, read-out: IC50): 5 nM
- IC50 (BJOX009000.02.4, clade AE, read-out: IC50): 5130 nM
- IC50 (BJOX010000.06.2, clade AE, read-out: IC50): > 20000 nM
- IC50 (BJOX025000.01.1, clade AE, read-out: IC50): > 20000 nM
- IC50 (BJOX028000.10.3, clade AE, read-out: IC50): > 20000 nM
- IC50 (BL01.DG, clade B, read-out: IC50): > 20000 nM
- IC50 (BR07.DG, clade B, read-out: IC50): 786 nM
- IC50 (BR025.9, clade C, read-out: IC50): > 20000 nM
- IC50 (BS208.B1, clade A, read-out: IC50): 17 nM
- IC50 (BX08.16, clade B, read-out: IC50): 2 nM
- IC50 (BaL.26, clade B, read-out: IC50): 0.8 nM
- IC50 (Bal.01, clade B, read-out: IC50): 1 nM
- IC50 (C1080.c3, clade AE, read-out: IC50): > 20000 nM
- IC50 (C2101.c1, clade AE, read-out: IC50): > 20000 nM
- IC50 (C3347.c11, clade AE, read-out: IC50): 18100 nM
- IC50 (C4118.09, clade AE, read-out: IC50): 4040 nM
- IC50 (CAAN.A2, clade B, read-out: IC50): 1 nM
- IC50 (CAP45.G3, clade C, read-out: IC50): 32 nM
- IC50 (CAP210.E8, clade C, read-out: IC50): 77 nM
- IC50 (CAP244.D3, clade C, read-out: IC50): 7 nM
- IC50 (CE703010217.B6, clade C, read-out: IC50): 2 nM
- IC50 (CH038.12, clade BC, read-out: IC50): 329 nM
- IC50 (CH070.1, clade BC, read-out: IC50): 23 nM
- IC50 (CH117.4, clade BC, read-out: IC50): 26 nM
- IC50 (CH119.10, clade BC, read-out: IC50): 4 nM
- IC50 (CH181.12, clade BC, read-out: IC50): 1 nM
- IC50 (CM244.ec1, clade AE, read-out: IC50): > 20000 nM
- IC50 (CNE3, clade AE, read-out: IC50): 8520 nM
- IC50 (CNE4, clade B, read-out: IC50): > 20000 nM
- IC50 (CNE5, clade AE, read-out: IC50): 12700 nM
- IC50 (CNE7, clade BC, read-out: IC50): 13 nM
- IC50 (CNE8, clade AE, read-out: IC50): > 20000 nM
- IC50 (CNE10, clade B, read-out: IC50): 0.5 nM
- IC50 (CNE12, clade B, read-out: IC50): 1 nM
- IC50 (CNE14, clade B, read-out: IC50): 230 nM
- IC50 (CNE15, clade BC, read-out: IC50): 0.9 nM
- IC50 (CNE19, clade BC, read-out: IC50): 2 nM
